In article PMC11898565, “Perturbation of Pseudomonas aeruginosa peptidoglycan recycling by anti-folates and design of a dual-action inhibitor” (mBio, 2025):

What was measured:
VIM-2 = biological target: T1, VIM-2 (Pseudomonas aeruginosa, UniProt Q9K2N0); assay: in vitro meropenem hydrolysis assay ([…] nm), […] enzyme, […] ZnSO4; type: biochemical
T1 construct: gene blaVIM-2

NDM-1 = biological target: T2, NDM-1 (Klebsiella pneumoniae, UniProt C7C422); assay: as above; type: biochemical
T2 construct: gene blaNDM-1
T2 sequence (C7C422 29-270 limits assumed): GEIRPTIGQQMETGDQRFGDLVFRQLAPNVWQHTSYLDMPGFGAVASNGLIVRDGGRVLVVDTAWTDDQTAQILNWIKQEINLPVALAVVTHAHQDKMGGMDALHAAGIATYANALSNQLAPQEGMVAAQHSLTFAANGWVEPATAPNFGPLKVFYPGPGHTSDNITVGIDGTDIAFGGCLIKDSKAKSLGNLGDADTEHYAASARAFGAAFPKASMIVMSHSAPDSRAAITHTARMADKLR

Nc1ccc(S(=O)(=O)Nc2scnc2C(=O)O)cc1 [MLLB-2201]
IC50 (VIM-2): 14.5 µM | IC50 (NDM-1): 1.8 µM
